Experimental data as given in PMC8617031, “Development of a BCL-xL and BCL-2 dual degrader with improved anti-leukemic activity,” (Nature Communications, 2021).
Several values for one entry are separate records, joined by “and”; a condition that tells them apart may be missing. Equal entries are not always repeated.

Key:
[1] = molecular target: T1, BCL-xL/PROTAC/VHL-ELOC-ELOB (VCB) ternary complex (Homo sapiens, UniProt P40337+Q07817); test: AlphaLISA ternary complex formation, cell-free, BCL-xL; type: binding; details: for in vitro ternary complex formation with BCL-xL (in words): AlphaLISA, cell-free, Fig. 2c, 3e; for AlphaLISA signal, BCL-xL/PROTAC/VCB: Fig. 2c raw Alpha reads
T1 construct: pGEX-6P-1-VHL(54-213) (pDL2200) was constructed through Gibson assembly method; made in house; host or cells: bacterial culture (LB broth, IPTG induction)
Experimental: (§1) AlphaLISA assay was used to evaluate the in vitro ternary complex formation between target proteins (BCL-xL or BCL-2), PROTAC and E3 ligase (VCB complex). In each well, 5 nM His-tagged BCL-xL or BCL-2 proteins and 5 nM GST-VCB complex was incubated with varying concentrations of compounds in fourfold serial dilutions, to a final volume of 40 µl in a 96-well PCR plate. After incubation at room temperature for 30 min, 5 µl alpha glutathione-donor beads (Cat. No. 6765300, PerkinElmer) were added to each well (20 µg/ml final concentration) and incubated for another 15 min. Thereafter, 5 µL 6× His-acceptor beads were added to each well (20 µg/ml final concentration) and incubated for an additional 45 min at room temperature. Thereafter, 17 µl of each sample was transferred in adjacent wells of a 384-well proxy plate, and the plate was scanned using the Alpha program on Biotek’s Synergy Neo2 multimode plate reader. The data were expressed as average AlphaLISA signal and plotted against different concentrations of compounds using GraphPad Prism 9 software.

[2] = molecular target: T2, BCL-2 (Homo sapiens, UniProt P10415); test: BCL-2 degradation by immunoblot in 293T cells; type: cell-based; details: for Dmax: HEK-293T
T2 construct: endogenous in cells
Experimental: (§2) The DC50 and Dmax were calculated using Prism based on the ImageJ-quantified western blots in Supplementary Fig. 4. c, d AlphaLISA assay to determine the formation of BCL-xL/PROTAC/VHL-ELOC-ELOB (VCB) (c) or BCL-2/PROTAC/VCB (d) ternary complex in a cell-free condition. Data represent the mean of a single experiment with 2 technical replicates. Similar results were obtained in one more independent experiment. e, f NanoBRET assays evaluating intracellular BCL-xL/PROTAC/VCB (e) or BCL-2/PROTAC/VCB (f) ternary complex formation. […] Data are expressed as mean ± s.e.m. of three biological replicates. Source data are provided as a Source data file.
(§3) Representative immunoblots are shown in (a–d) and β-actin was used as a loading control in all immunoblot analyses. The normalized protein content in the immunoblots is presented as mean values ± s.e.m. (n = 3 biologically independent experiments) in the bar graph (bottom panel). e, f The formation of BCL-xL/PROTAC/VCB (e) and BCL-2/PROTAC/VCB (f) ternary complexes in a cell-free condition was determined by AlphaLISA assay. Data represent the mean of a single experiment with 2 technical replicates. […] Source data are provided as a Source data file.
(§4) Cells were collected, washed once with ice-cold phosphate-buffered saline, pH 7.2 (PBS, cat. no. 20012027; Thermo Fisher Scientific) and lysed in RIPA lysis buffer (Cat. No. BP-115DG, Boston Bio Products, Ashland, MA, USA) supplemented with protease and phosphatase inhibitor cocktails (Cat. No. PPC1010, Sigma-Aldrich, St. Louis, MO, USA) through sonication. The samples were centrifuged at 14,000 r.p.m. for 5 min and the supernatants were transferred into a new tube. The protein concentration in the supernatants was determined using the Pierce BCA protein Assay kit (cat. no. 23225, Thermo Fisher Scientific). The protein concentration was normalized, and the samples were reduced in 4× Laemmli’s SDS-sample buffer (cat. no. BP-110R, Boston Bio Products) and denatured at 95 °C for 5 min. An equal amount of protein samples (20–40 μg per lane) were resolved using precast 4–20% Tris-glycine gels (Mini-PROTEAN TGX, cat. no. 456–1094, Bio-Rad), and resolved proteins were transferred onto 0.2-µm pore size polyvinylidene difluoride (PVDF) blotting membranes (cat. no. LC2002, Thermo Fisher Scientific) using mini trans-blot electrophoretic transfer cell (Bio-Rad). The membranes were blocked with non-fat dry milk (5% wt/vol) in 1× Tris-buffered saline-Tween-20 (TBST, cat. no. J77500, Affymetrix) for 1 h at room temperature, and were subsequently probed with primary antibodies at a predetermined optimal concentration in non-fat dry milk (5% wt/vol in TBST) overnight at 4 °C. The membranes were washed three times (5 min each) in TBST and then incubated with horse radish peroxidase (HRP)-conjugated secondary antibodies for 1 h at room temperature. Following sufficient washing with TBST, the membranes were exposed with chemiluminescent HRP substrate (cat. no. WBKLS0500, MilliporeSigma), and the signal was detected using the ChemiDoc MP Imaging System (Bio-Rad) and quantified using the ImageJ (v1.53a) software from NIH.

[3] = molecular target: T3, BCL-2/PROTAC/VCB ternary complex (Homo sapiens, UniProt P10415+P40337); test: AlphaLISA ternary complex formation, cell-free, BCL-2; type: binding; details: for in vitro ternary complex formation with BCL-2 (in words): AlphaLISA, cell-free, Fig. 2d, 3f; for AlphaLISA signal, BCL-2/PROTAC/VCB: Fig. 2d raw Alpha reads
T3 construct: pGEX-6P-1-VHL(54-213) (pDL2200) was constructed through Gibson assembly method; made in house; host or cells: bacterial culture (LB broth, IPTG induction)
Experimental: as §1

[4] = molecular target: T4, BCL-xL (Homo sapiens, UniProt Q07817); test: BCL-xL degradation by immunoblot in 293T cells; type: cell-based; details: for Dmax: HEK-293T
T4 construct: endogenous in cells
Experimental: as §2, §3, §4

[5] = compound 200000 nM, 2 technical replicates

T3 sequence (P10415 1-211 limits assumed): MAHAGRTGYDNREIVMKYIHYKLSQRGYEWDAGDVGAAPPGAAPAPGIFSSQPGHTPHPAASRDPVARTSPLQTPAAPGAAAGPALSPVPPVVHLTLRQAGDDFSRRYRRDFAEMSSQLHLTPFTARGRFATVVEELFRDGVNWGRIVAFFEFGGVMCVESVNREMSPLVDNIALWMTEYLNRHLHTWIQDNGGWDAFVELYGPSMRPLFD
T3 sequence (P40337 54-213 limits assumed): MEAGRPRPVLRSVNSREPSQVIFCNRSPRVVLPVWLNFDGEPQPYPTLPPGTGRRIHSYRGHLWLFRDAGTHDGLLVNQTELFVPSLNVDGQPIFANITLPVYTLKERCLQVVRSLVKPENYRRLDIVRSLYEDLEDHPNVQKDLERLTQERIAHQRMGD
T3 sequence (Q15369 17-112 partner limits assumed): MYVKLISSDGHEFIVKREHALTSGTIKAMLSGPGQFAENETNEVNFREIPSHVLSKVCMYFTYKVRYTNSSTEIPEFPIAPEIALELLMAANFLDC
T3 sequence (Q15370 whole entry partner): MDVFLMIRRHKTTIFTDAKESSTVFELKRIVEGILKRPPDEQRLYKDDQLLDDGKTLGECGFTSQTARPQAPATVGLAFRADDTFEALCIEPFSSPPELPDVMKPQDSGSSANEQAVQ
T4 sequence (Q07817 whole entry): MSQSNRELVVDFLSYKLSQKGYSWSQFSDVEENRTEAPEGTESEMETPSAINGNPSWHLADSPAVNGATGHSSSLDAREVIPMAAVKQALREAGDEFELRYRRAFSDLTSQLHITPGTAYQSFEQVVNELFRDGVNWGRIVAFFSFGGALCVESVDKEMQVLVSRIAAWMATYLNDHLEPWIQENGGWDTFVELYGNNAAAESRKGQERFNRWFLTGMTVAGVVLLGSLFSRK
T1 sequence (Q07817 1-212 limits assumed): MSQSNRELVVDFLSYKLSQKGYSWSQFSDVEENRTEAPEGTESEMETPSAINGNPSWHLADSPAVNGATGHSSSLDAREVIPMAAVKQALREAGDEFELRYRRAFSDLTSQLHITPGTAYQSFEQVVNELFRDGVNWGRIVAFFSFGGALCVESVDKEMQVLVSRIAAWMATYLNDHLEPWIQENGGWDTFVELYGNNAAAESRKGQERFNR
T1 sequence (P40337 54-213 limits assumed): as the sequence (P40337 54-213 limits assumed) above
T1 sequence (Q15369 17-112 partner limits assumed): as the sequence (Q15369 17-112 partner limits assumed) above
T1 sequence (Q15370 whole entry partner): as the sequence (Q15370 whole entry partner) above
T2 sequence (P10415 whole entry): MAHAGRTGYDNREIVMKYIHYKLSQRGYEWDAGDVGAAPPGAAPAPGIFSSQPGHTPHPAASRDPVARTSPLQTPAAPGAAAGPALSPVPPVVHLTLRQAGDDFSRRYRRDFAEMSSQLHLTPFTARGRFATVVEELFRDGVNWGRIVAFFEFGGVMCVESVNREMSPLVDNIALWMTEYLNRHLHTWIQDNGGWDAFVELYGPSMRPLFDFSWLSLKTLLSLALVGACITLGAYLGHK

Cc1ncsc1-c1ccc([C@H](C)NC(=O)[C@@H]2C[C@@H](O)CN2C(=O)[C@@H](NC(=O)CCCCCCCCC(=O)N2CCN(CC3(C)CCC(c4ccc(Cl)cc4)=C(CN4CCN(c5ccc(C(=O)NS(=O)(=O)c6ccc(N[C@H](CCN7CCOCC7)CSc7ccccc7)c(S(=O)(=O)C(F)(F)F)c6)cc5)CC4)C3)CC2)C(C)(C)C)cc1 (stereo partly drawn) [PPC10]
in vitro ternary complex formation with BCL-xL (in words) [1]: much weaker ternary complexes | AlphaLISA signal, BCL-xL/PROTAC/VCB ([1]; compound 0.191 nM): 14831 and 16852 | AlphaLISA signal, BCL-xL/PROTAC/VCB ([1]; compound 0.763 nM): 20168 and 16739 | AlphaLISA signal, BCL-xL/PROTAC/VCB ([1]; compound 3.052 nM): 14541 and 18037 | AlphaLISA signal, BCL-xL/PROTAC/VCB ([1]; compound 12.207 nM): 19478 and 16699 | AlphaLISA signal, BCL-xL/PROTAC/VCB ([1]; compound 48.828 nM): 33222 and 36251 | AlphaLISA signal, BCL-xL/PROTAC/VCB ([1]; compound 195.31 nM): 136427 and 150589 | AlphaLISA signal, BCL-xL/PROTAC/VCB ([1]; compound 781.25 nM): 133700 and 133335 | AlphaLISA signal, BCL-xL/PROTAC/VCB ([1]; compound 12500 nM): 16869 and 17291 | AlphaLISA signal, BCL-xL/PROTAC/VCB ([1]; compound 50000 nM): 11499 and 11443 | AlphaLISA signal, BCL-xL/PROTAC/VCB [1, 5]: 9101 and 11295 | BCL-2 degradation (in words) ([2]; 293T cells, 16 h): also degraded BCL-2 | DC50 ([2]; 293T cells, four concentrations, 16 h, Fig. 2b, read-out: BCL-2 DC50): 0.355 µM | Dmax [2]: 69% | in vitro ternary complex formation with BCL-2 (in words) [3]: much weaker ternary complexes | AlphaLISA signal, BCL-2/PROTAC/VCB ([3]; compound 0.191 nM): 13116 and 18939 | AlphaLISA signal, BCL-2/PROTAC/VCB ([3]; compound 0.763 nM): 20209 and 15528 | AlphaLISA signal, BCL-2/PROTAC/VCB ([3]; compound 3.052 nM): 15560 and 16756 | AlphaLISA signal, BCL-2/PROTAC/VCB ([3]; compound 12.207 nM): 23256 and 23865 | AlphaLISA signal, BCL-2/PROTAC/VCB ([3]; compound 48.828 nM): 69142 and 68261 | AlphaLISA signal, BCL-2/PROTAC/VCB ([3]; compound 195.31 nM): 218425 and 202826 | AlphaLISA signal, BCL-2/PROTAC/VCB ([3]; compound 781.25 nM): 114837 and 140035 | AlphaLISA signal, BCL-2/PROTAC/VCB ([3]; compound 3125 nM): 20525 and 27108 | AlphaLISA signal, BCL-2/PROTAC/VCB ([3]; compound 12500 nM): 13932 and 13026 | AlphaLISA signal, BCL-2/PROTAC/VCB ([3]; compound 50000 nM): 10041 and 13037 | AlphaLISA signal, BCL-2/PROTAC/VCB [3, 5]: 11345 and 10101 | DC50 ([4]; 293T cells, four concentrations, 16 h, Fig. 2b, read-out: BCL-xL DC50): 0.0121 µM | Dmax [4]: 81%

Cc1ncsc1-c1ccc([C@H](C)NC(=O)[C@@H]2C[C@@H](O)CN2C(=O)[C@@H](NC(=O)CCCCCCCCCC(=O)N2CCN(CC3(C)CCC(c4ccc(Cl)cc4)=C(CN4CCN(c5ccc(C(=O)NS(=O)(=O)c6ccc(N[C@H](CCN7CCOCC7)CSc7ccccc7)c(S(=O)(=O)C(F)(F)F)c6)cc5)CC4)C3)CC2)C(C)(C)C)cc1 (stereo partly drawn) [PPC11]
in vitro ternary complex formation with BCL-xL (in words) [1]: much weaker ternary complexes | AlphaLISA signal, BCL-xL/PROTAC/VCB ([1]; compound 0.191 nM): 14159 and 17511 | AlphaLISA signal, BCL-xL/PROTAC/VCB ([1]; compound 0.763 nM): 19035 and 14403 | AlphaLISA signal, BCL-xL/PROTAC/VCB ([1]; compound 3.052 nM): 18192 and 15524 | AlphaLISA signal, BCL-xL/PROTAC/VCB ([1]; compound 12.207 nM): 16016 and 15699 | AlphaLISA signal, BCL-xL/PROTAC/VCB ([1]; compound 48.828 nM): 18370 and 17440 | AlphaLISA signal, BCL-xL/PROTAC/VCB ([1]; compound 195.31 nM): 28376 and 33281 | AlphaLISA signal, BCL-xL/PROTAC/VCB ([1]; compound 781.25 nM): 25822 and 27451 | AlphaLISA signal, BCL-xL/PROTAC/VCB ([1]; compound 3125 nM): 15301 and 22197 | AlphaLISA signal, BCL-xL/PROTAC/VCB ([1]; compound 12500 nM): 15507 and 16950 | AlphaLISA signal, BCL-xL/PROTAC/VCB ([1]; compound 50000 nM): 13057 and 15839 | AlphaLISA signal, BCL-xL/PROTAC/VCB [1, 5]: 17326 and 15566 | Dmax [2]: 38% | in vitro ternary complex formation with BCL-2 (in words) [3]: much weaker ternary complexes | AlphaLISA signal, BCL-2/PROTAC/VCB ([3]; compound 0.191 nM): 16751 and 14492 | AlphaLISA signal, BCL-2/PROTAC/VCB ([3]; compound 0.763 nM): 17062 and 15173 | AlphaLISA signal, BCL-2/PROTAC/VCB ([3]; compound 3.052 nM): 17477 and 13618 | AlphaLISA signal, BCL-2/PROTAC/VCB ([3]; compound 12.207 nM): 15016 and 16035 | AlphaLISA signal, BCL-2/PROTAC/VCB ([3]; compound 48.828 nM): 21071 and 20895 | AlphaLISA signal, BCL-2/PROTAC/VCB ([3]; compound 195.31 nM): 36395 and 36207 | AlphaLISA signal, BCL-2/PROTAC/VCB ([3]; compound 781.25 nM): 16303 and 18907 | AlphaLISA signal, BCL-2/PROTAC/VCB ([3]; compound 3125 nM): 17856 and 16482 | AlphaLISA signal, BCL-2/PROTAC/VCB ([3]; compound 12500 nM): 13061 and 15598 | AlphaLISA signal, BCL-2/PROTAC/VCB ([3]; compound 50000 nM): 10324 and 9718 | AlphaLISA signal, BCL-2/PROTAC/VCB [3, 5]: 13464 and 10765 | Dmax [4]: 38%
